Earlier results, collected in patent publication EP0640130B1, “CHIMERIC M[…] ANALOGUES AND METHODS OF USE THEREOF” (CREATIVE BIOMOLECULES, INC., priority 1992, dated 1993).

Target: 26-10 sFv (anti-digoxin single-chain Fv)

For `C[C@@H]1O[C@@H](O[C@H]2C[C@@H](O)[C@]3(CO)[C@H]4[C@H](O)C[C@]5(C)[C@@H](C6=CC(=O)OC6)CC[C@]5(O)[C@@H]4CC[C@]3(O)C2)[C@H](O)[C@H](O)[C@H]1O` [Ouabain], the “Ka for association with 26-10 sFv” value is listed as “about 10^7 M^-1”.
